Laboratory results as given in ChEMBL document CHEMBL1151740, “Structurally constrained hybrid derivatives containing octahydrobenzo[g or f]quinoline moieties for dopamine D2 and D3 receptors: binding characterization at D2/D3 receptors and elucidation of a pharmacophore model” (J Med Chem, 2008).

What was measured:
D(3) dopamine receptor = D(3) dopamine receptor (Rattus norvegicus, UniProt P19020); assay: Displacement of [3H]Spiperone from rat dopamine D3 receptor expressed in HEK293 cells; assay type: cell-based
D(2) dopamine receptor = D(2) dopamine receptor (Rattus norvegicus, UniProt P61169); assay: Displacement of [3H]Spiperone from rat dopamine D2L receptor expressed in HEK293 cells; assay type: cell-based
Sequence of D(2) dopamine receptor (P61169 whole entry): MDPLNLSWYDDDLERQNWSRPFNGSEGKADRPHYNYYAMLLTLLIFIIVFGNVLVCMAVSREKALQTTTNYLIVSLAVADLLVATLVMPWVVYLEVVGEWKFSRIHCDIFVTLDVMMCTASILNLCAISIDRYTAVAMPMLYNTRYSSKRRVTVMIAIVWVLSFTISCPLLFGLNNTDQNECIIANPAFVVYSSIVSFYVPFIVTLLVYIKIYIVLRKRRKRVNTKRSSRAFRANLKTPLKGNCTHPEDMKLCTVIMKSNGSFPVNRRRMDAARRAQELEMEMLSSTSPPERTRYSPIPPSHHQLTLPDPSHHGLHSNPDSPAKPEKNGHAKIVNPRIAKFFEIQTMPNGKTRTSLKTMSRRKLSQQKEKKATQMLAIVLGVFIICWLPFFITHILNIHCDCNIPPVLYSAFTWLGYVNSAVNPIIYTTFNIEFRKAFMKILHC

Sequence of D(3) dopamine receptor (P19020 whole entry): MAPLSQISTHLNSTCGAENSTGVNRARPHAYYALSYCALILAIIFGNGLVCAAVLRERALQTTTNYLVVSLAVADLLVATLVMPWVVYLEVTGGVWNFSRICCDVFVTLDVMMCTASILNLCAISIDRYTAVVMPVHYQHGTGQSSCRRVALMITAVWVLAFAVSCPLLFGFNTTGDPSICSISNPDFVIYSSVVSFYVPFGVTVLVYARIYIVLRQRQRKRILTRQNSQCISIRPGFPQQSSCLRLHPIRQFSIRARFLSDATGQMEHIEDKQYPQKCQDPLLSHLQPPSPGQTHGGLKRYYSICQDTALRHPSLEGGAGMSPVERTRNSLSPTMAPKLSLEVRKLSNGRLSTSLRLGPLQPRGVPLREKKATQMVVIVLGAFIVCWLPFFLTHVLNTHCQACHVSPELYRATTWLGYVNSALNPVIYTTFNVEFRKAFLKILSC

SMILES	Ki (D(3) dopamine receptor)	Ki (D(2) dopamine receptor)
CCCN(CCN1CCN(c2ccccc2)CC1)[C@H]1CCc2ccc(O)cc2C1	38.6 nM	809 nM
Oc1cccc2c1C[C@@H]1CCCN(CCN3CCN(c4ccccc4)CC3)[C@H]1C2 (racemic)	736 nM	1710 nM
Oc1cccc2c1CC[C@@H]1[C@@H]2CCCN1CCN1CCN(c2ccccc2)CC1	89.3 nM	835 nM
CCCN(CCN1CCN(c2ccccc2)CC1)[C@H]1CCc2nc(N)sc2C1	4.15 nM	243 nM
Oc1ccc2c(c1)C[C@H]1[C@@H](CCCN1CCN1CCN(c3cccc(Cl)c3Cl)CC1)C2 (racemic)	256 nM	338 nM
CCCN(CCN1CCN(c2ccccc2)CC1)[C@@H]1CCc2nc(N)sc2C1	44 nM	1980 nM
CCCN1CCC[C@@H]2Cc3c(O)cccc3C[C@H]21 (racemic)	395 nM	2780 nM
Oc1cccc2c1C[C@@H]1CCCN(CCN3CCN(c4cccc(Cl)c4Cl)CC3)[C@H]1C2 (racemic)	168 nM	136 nM
CCCN1CCC[C@H]2c3cccc(O)c3CC[C@@H]21 (relative stereo)	96 nM	347 nM
CCCN(CCN1CCN(c2ccc(-c3ccccc3)cc2)CC1)[C@H]1CCc2nc(N)sc2C1	0.925 nM	234 nM
Oc1ccc2c(c1)C[C@H]1[C@@H](CCCN1CCCCN1CCN(c3ccccc3)CC1)C2 (racemic)	102 nM	289 nM
Oc1ccc2c(c1)[C@@H]1CCCN(CCN3CCN(c4ccccc4)CC3)[C@H]1CC2	72.2 nM	219 nM
Oc1ccc2c(c1)C[C@H]1[C@@H](CCCN1CCN1CCN(c3ccccc3)CC1)C2 (racemic)	473 nM	2520 nM
Oc1cccc2c1CC[C@H]1[C@H]2CCCN1CCN1CCN(c2ccccc2)CC1	4.95 nM	23.6 nM
Oc1ccc2c(c1)C[C@@H]1[C@@H](CCCN1CCN1CCN(c3cccc(Cl)c3Cl)CC1)C2 (racemic)	187 nM	148 nM
